Laboratory results from patent US9499492B2, “4-(ortho)-fluorophenyl-5-fluoropyrimidin-2-yl amines containing a sulfoximine group” (BAYER PHARMA AKTIENGESELLSCHAFT, priority 2012, dated 2016).
Read-outs that look alike come from different tables or passages of the source.

How the values were obtained:
CDK9/CycT1 = CDK9/CycT1 (Homo sapiens (Human), UniProt P50750); assay: CDK9/CycT1 kinase assay (Method 1a); type: biochemical; details: for IC50: 10 μM ATP; for Selectivity CDK9/CDK2: derived from Methods 1a. and 2.
Sequence of CDK9/CycT1 (P50750 whole entry): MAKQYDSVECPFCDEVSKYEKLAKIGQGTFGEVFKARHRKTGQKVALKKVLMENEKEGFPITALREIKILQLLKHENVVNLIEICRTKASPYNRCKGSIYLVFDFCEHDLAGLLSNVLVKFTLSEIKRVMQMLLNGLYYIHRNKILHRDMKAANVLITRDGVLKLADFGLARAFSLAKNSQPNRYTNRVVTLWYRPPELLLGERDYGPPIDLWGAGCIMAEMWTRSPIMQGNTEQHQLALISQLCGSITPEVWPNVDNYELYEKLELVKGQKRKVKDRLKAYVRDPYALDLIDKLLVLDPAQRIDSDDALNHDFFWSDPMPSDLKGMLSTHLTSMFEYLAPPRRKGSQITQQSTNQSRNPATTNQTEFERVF
Sequence of CDK9/CycT1 (O60563 whole entry partner): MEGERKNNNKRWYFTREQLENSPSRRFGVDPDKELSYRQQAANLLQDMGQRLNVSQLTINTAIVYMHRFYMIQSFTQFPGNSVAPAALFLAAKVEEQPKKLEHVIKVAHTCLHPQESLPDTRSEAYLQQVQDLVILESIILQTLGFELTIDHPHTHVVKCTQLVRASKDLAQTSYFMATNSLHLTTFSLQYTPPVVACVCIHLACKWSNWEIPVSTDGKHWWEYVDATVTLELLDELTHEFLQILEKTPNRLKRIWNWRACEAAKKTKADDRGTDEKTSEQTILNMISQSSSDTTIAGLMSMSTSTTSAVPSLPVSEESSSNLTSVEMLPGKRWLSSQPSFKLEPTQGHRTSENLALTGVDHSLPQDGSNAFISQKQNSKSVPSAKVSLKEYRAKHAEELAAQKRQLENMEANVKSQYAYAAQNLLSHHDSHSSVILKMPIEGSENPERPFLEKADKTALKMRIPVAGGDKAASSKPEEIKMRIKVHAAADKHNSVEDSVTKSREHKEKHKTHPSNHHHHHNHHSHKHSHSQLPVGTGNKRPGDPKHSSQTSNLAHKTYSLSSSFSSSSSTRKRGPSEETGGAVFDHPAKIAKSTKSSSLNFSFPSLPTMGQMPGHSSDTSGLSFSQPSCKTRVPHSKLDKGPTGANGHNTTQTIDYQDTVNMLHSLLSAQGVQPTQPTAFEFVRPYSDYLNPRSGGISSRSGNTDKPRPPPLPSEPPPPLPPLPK

[1] = system: HeLa, human cervical tumour cells; assay: Proliferation assay, HeLa (Method 3); type: cell-based; details: 4 days, crystal violet, read-out: Inhibition of HeLa cell proliferation IC50
Procedure, shortened: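 Cells were seeded and, after 24 h, exposed to compounds at 0.001–10 µM (final DMSO 0.5%) for 4 days. Cell number was measured by glutaraldehyde fixation, crystal violet staining and absorbance at 595 nm. Values were normalised to a zero-point plate (0%) and untreated cells (100%).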

[2] = In vitro metabolic stability in rat hepatocytes (Method 5); type: in vitro ADME, Han Wistar rat; details: 1 μM test compound
Method: 5. Investigation of In Vitro Metabolic Stability in Rat Hepatocytes
Hepatocytes from Han Wistar rats were isolated via a 2-step perfusion method. After perfusion, the liver was carefully removed from the rat: the liver capsule was opened and the hepatocytes were gently shaken out into a Petri dish with ice-cold Williams medium E (purchased from Sigma Aldrich Life Science, St Louis, Mo.). The resulting cell suspension was filtered through sterile gaze in 50 ml falcon tubes and centrifuged at 50×g for 3 min at room temperature. The cell pellet was resuspended in 30 ml WME and centrifuged through a Percoll® gradient for 2 times at 100×g. The hepatocytes were washed again with Williams' medium E (WMA) and resuspended in medium containing 5% Fetal calf serum (FCS, purchased from Invitrogen, Auckland, NZ). Cell viability was determined by trypan blue exclusion.
For the metabolic stability assay liver cells were distributed in WME containing 5% FCS to glass vials at a density of 1.0×10^6 vital cells/ml. The test compound was added to a final concentration of 1 μM. During incubation, the hepatocyte suspensions were continuously shaken and aliquots were taken at 2, 8, 16, 30, 45 and 90 min, to which equal volumes of cold acetonitrile were immediately added. Samples were frozen at −20° C. over night, after subsequently centrifuged for 15 minutes at 3000 rpm and the supernatant was analyzed with an Agilent 1200 HPLC-system with LCMS/MS detection.
The half-life of a test compound was determined from the concentration-time plot. From the half-life the intrinsic clearances were calculated. Together with the additional parameters liver blood flow, amount of liver cells in vivo and in vitro.

[3] = system: NCI-H460, human non-small cell lung carcinoma cells; assay: Proliferation assay, NCI-H460 (Method 3); type: cell-based; details: NCI-H460, 4 days, crystal violet, read-out: Inhibition of H460 cell proliferation IC50
Method: (§1) After 24 hours, the cells of one plate (zero-point plate) were stained with crystal violet (see below), while the medium of the other plates was replaced by fresh culture medium (200 μl), to which the test substances were added in various concentrations (0 μM, as well as in the range of 0.001-10 μM; the final concentration of the solvent dimethyl sulfoxide was 0.5%). The cells were incubated for 4 days in the presence of test substances. Cell proliferation was determined by staining the cells with crystal violet: the cells were fixed by adding 20 μl/measuring point of an 11% glutaric aldehyde solution for 15 minutes at room temperature. After three washing cycles of the fixed cells with water, the plates were dried at room temperature. The cells were stained by adding 100 μl/measuring point of a 0.1% crystal violet solution (pH 3.0). After three washing cycles of the stained cells with water, the plates were dried at room temperature. The dye was dissolved by adding 100 μl/measuring point of a 10% acetic acid solution. The extinction was determined by photometry at a wavelength of 595 nm. The change of cell number, in percent, was calculated by normalization of the measured values to the extinction values of the zero-point plate (=0%) and the extinction of the untreated (0 μm) cells (=100%).

[4] = system: B16F10, mouse melanoma cells; assay: Proliferation assay, B16F10 (Method 3); type: cell-based; details: B16F10, 4 days, crystal violet, read-out: Inhibition of B16F10 cell proliferation IC50
Method: as §1

Structure (SMILES): CS(=O)(Cc1cc(Nc2ncc(F)c(-c3ccc(F)cc3F)n2)cc(C(F)(F)F)c1)=NC#N (racemic) [Example 1, (rac)-{[3-{[4-(2,4-Difluorophenyl)-5-fluoropyrimidin-2-yl]amino}-5-(trifluoromethyl)benzyl](methyl)oxido-λ^6-sulfanylidene}cyanamide]
- IC50 (CDK9/CycT1): 0.013 µM
- Selectivity CDK9/CDK2 (CDK9/CycT1): 105
- IC50 ([1]; Homo sapiens, 96 h): 0.44 µM
- maximal calculated oral bioavailability (Fmax) based on stability data in rat Hepatocytes [2]: 75%

Structure (SMILES): CS(=N)(=O)Cc1cc(Nc2ncc(F)c(-c3ccc(F)cc3F)n2)cc(C(F)(F)F)c1 (racemic) [Example 4, (rac)-4-(2,4-Difluorophenyl)-5-fluoro-N-{3-[(S-methylsulfonimidoyl)methyl]-5-(trifluoromethyl)phenyl}pyrimidin-2-amine]
- IC50 (CDK9/CycT1): 0.01 µM
- Selectivity CDK9/CDK2 (CDK9/CycT1): 88
- IC50 ([1]; Homo sapiens, 96 h): 0.96 µM
- maximal calculated oral bioavailability (Fmax) based on stability data in rat Hepatocytes [2]: 91%

Structure (SMILES): CS(=O)(Cc1cc(Nc2ncc(F)c(-c3ccc(F)cc3F)n2)cc(C(F)(F)F)c1)=NC(N)=O (racemic) [Example 7, (rac)-1-{[3-{[4-(2,4-Difluorophenyl)-5-fluoropyrimidin-2-yl]amino}-5-(trifluoromethyl)benzyl](methyl)oxido-λ^6-sulfanylidene}urea]
- IC50 (CDK9/CycT1): 0.012 µM
- Selectivity CDK9/CDK2 (CDK9/CycT1): 98
- IC50 ([1]; Homo sapiens, 96 h): 0.47 µM
- maximal calculated oral bioavailability (Fmax) based on stability data in rat Hepatocytes [2]: 80%

Structure (SMILES): CS(=N)(=O)Cc1cc(Cl)cc(Nc2ncc(F)c(-c3ccc(F)cc3F)n2)c1 (racemic) [Example 15, (rac)-N-{3-chloro-5-[(S-methylsulfonimidoyl)methyl]phenyl}-4-(2,4-difluorophenyl)-5-fluoropyrimidin-2-amine]
- IC50 (CDK9/CycT1): 0.024 µM
- Selectivity CDK9/CDK2 (CDK9/CycT1): 26
- IC50 ([1]; Homo sapiens, 96 h): 2.21 µM
- maximal calculated oral bioavailability (Fmax) based on stability data in rat Hepatocytes [2]: 79%

Structure (SMILES): CS(=O)(Cc1cc(Nc2ncc(F)c(-c3ccc(F)cc3F)n2)cc(S(F)(F)(F)(F)F)c1)=NC#N (racemic) [Example 28, (rac)-{[3-{[4-(2,4-Difluorophenyl)-5-fluoropyrimidin-2-yl]amino}-5-(pentafluoro-λ^6-sulfanyl)benzyl](methyl)oxido-λ^6-sulfanylidene}cyanamide]
- IC50 (CDK9/CycT1): 0.006 µM
- Selectivity CDK9/CDK2 (CDK9/CycT1): 210
- IC50 ([1]; Homo sapiens, 96 h): 0.262 µM
- IC50 ([3]; Homo sapiens, NCI-H460, 96 h): 0.359 µM
- IC50 ([4]; Mus musculus, B16-F10, 96 h): 0.363 µM

Structure (SMILES): CS(=O)(Cc1cc(Nc2ncc(F)c(-c3ccc(F)cc3F)n2)cc(C(F)(F)F)c1)=NC#N (single isomer, unassigned) [Example 2, {[3-{[4-(2,4-Difluorophenyl)-5-fluoropyrimidin-2-yl]amino}-5-(trifluoromethyl)benzyl](methyl)oxido-λ^6-sulfanylidene}cyanamide]
- IC50 (CDK9/CycT1): 0.007 µM
- Selectivity CDK9/CDK2 (CDK9/CycT1): 166
- IC50 ([1]; Homo sapiens, 96 h): 0.35 µM
- IC50 ([3]; Homo sapiens, NCI-H460, 96 h): 0.36 µM
- IC50 ([4]; Mus musculus, B16-F10, 96 h): 0.39 µM
- maximal calculated oral bioavailability (Fmax) based on stability data in rat Hepatocytes [2]: 79%

Structure (SMILES): CS(=O)(Cc1cc(Nc2ncc(F)c(-c3ccc(F)cc3F)n2)cc(C(F)(F)F)c1)=NC#N (single isomer, unassigned) [Example 3, {[3-{[4-(2,4-Difluorophenyl)-5-fluoropyrimidin-2-yl]amino}-5-(trifluoromethyl)benzyl](methyl)oxido-λ^6-sulfanylidene}cyanamide]
- IC50 (CDK9/CycT1): 0.008 µM
- Selectivity CDK9/CDK2 (CDK9/CycT1): 170
- IC50 [1]: 0.59 µM
- IC50 [3]: 0.34 µM
- IC50 [4]: 0.34 µM
- maximal calculated oral bioavailability (Fmax) based on stability data in rat Hepatocytes [2]: 76%

Structure (SMILES): CS(=O)(Cc1cc(Nc2ncc(F)c(-c3ccc(F)cc3F)n2)cc(C(F)(F)F)c1)=NC(N)=O (single isomer, unassigned) [Example 23, 1-{[3-{[4-(2,4-Difluorophenyl)-5-fluoropyrimidin-2-yl]amino}-5-(trifluoromethyl)benzyl](methyl)oxido-λ^6-sulfanylidene}urea]
- IC50 (CDK9/CycT1): 0.004 µM
- Selectivity CDK9/CDK2 (CDK9/CycT1): 88
- IC50 [1]: 0.29 µM
- IC50 ([3]; Homo sapiens, NCI-H460, 96 h): 0.35 µM
- IC50 ([4]; Mus musculus, B16-F10, 96 h): 0.38 µM
- maximal calculated oral bioavailability (Fmax) based on stability data in rat Hepatocytes [2]: 93%

Structure (SMILES): CS(=N)(=O)Cc1cc(Nc2ncc(F)c(-c3ccc(F)cc3F)n2)cc(S(F)(F)(F)(F)F)c1 (single isomer, unassigned) [Example 32, 4-(2,4-Difluorophenyl)-5-fluoro-N-{3-[(S-methylsulfonimidoyl)methyl]-5-(pentafluoro-λ^6-sulfanyl)phenyl}pyrimidin-2-amine]
- IC50 (CDK9/CycT1): 0.006 µM
- Selectivity CDK9/CDK2 (CDK9/CycT1): 263
- IC50 [1]: 0.331 µM
- IC50 ([3]; Homo sapiens, NCI-H460, 96 h): 0.483 µM
- IC50 ([4]; Mus musculus, B16-F10, 96 h): 0.406 µM
- maximal calculated oral bioavailability (Fmax) based on stability data in rat Hepatocytes [2]: 91%

Structure (SMILES): CS(=O)(Cc1cc(Nc2ncc(F)c(-c3ccc(F)cc3F)n2)cc(S(F)(F)(F)(F)F)c1)=NC(N)=O (single isomer, unassigned) [Example 33, 1-{[3-{[4-(2,4-Difluorophenyl)-5-fluoropyrimidin-2-yl]amino}-5-(pentafluoro-λ^6-sulfanyl)benzyl](methyl)oxido-λ^6-sulfanylidene}urea]
- IC50 (CDK9/CycT1): 0.016 µM
- Selectivity CDK9/CDK2 (CDK9/CycT1): 98
- IC50 ([1]; Homo sapiens, 96 h): 0.278 µM
- IC50 [3]: 0.675 µM
- IC50 ([4]; Mus musculus, B16-F10, 96 h): 0.611 µM
